Read-outs that look alike come from different tables or passages of the source.
How the values were obtained:
[1] = tested on: vertebral artery; assay: Blood flow increase of vertebral artery in anesthetized dogs, i.v.; assay type: in vivo, dog (mongrel); conditions: Canis lupus familiaris, iv; for change in vivo at 0.3 mg/kg: read-out: Increase in vertebral artery blood flow
Description: (§1) 2. Blood Flow Increase of Coronary, Vertebral and Femoral Arteries
(§2) A plethysmographic probe (manufactured and sold by NIHON KODEN CO., LTD., Japan) was mounted on the coronary, vertebral and femoral arteries, and blood flow was measured by means of an electromagnetic blood flowmeter (type:MF-27, manufactured and sold by NIHON KODEN CO., LTD., Japan). Under these conditions, the compounds of the present invention were intravenously administered through a polyethylene tube inserted to a femoral veinlet, and the change in blood flow was measured for 30 minutes by means of the electromagnetic blood flowmeter.
(§3) The effects (dilation of the arteries) of the compounds of the present invention on blood flow in coronary, vertebral and femoral arteries were examined according to the method as mentioned hereinbefore.

[2] = tested on: femoral artery; assay: Blood flow increase of femoral artery in anesthetized dogs, i.v.; assay type: in vivo, dog (mongrel); conditions: Canis lupus familiaris, iv; for change in vivo at 0.3 mg/kg: read-out: Increase in femoral artery blood flow
Description: as §1, §2, §3

[3] = tested on: coronary artery; assay: Blood flow increase of coronary artery in anesthetized dogs, i.v.; assay type: in vivo, dog (mongrel); conditions: Canis lupus familiaris, iv; for change in vivo at 0.3 mg/kg: read-out: Increase in coronary artery blood flow
Description: as §1, §2, §3

[4] = Acute toxicity in mice; conditions: mouse, in vivo, male mice
Description: (§4) Using ddY male mice and Wistar male rats, the acute toxicity of the compounds of the present invention was examined with respect to LD50 according to the method proposed by K. Takagi et al. (K. Takagi and H. Ozawa, "Expeprimental Techniques in Pharmacology," p200-206 (1960), NANZANDO CO., LTD., Japan).
(§5) Compounds of the present invention were tested with respect to acute toxicities according to the method as mentioned hereinbefore.

[5] = tested on: bronchial tubes; assay: Inhibition of histamine contraction of bronchial tubes (relaxation of bronchial tubes); conditions: Cavia porcellus; guinea pig bronchial tube, 10 μM histamine; Table 16; read-out: ED50 (50% decrease of histamine contraction of bronchial tubes)
Description: 3. Inhibition of Histamine Contraction of Bronchial Tubes (Relaxation of Bronchial Tubes)
That is, a bronchial tube sample taken from a guinea pig was suspended in the 20-ml bath filled with Krebs-Henseleit nutrient solution and maintained at a temperature of 37° C. To the bath was added histamine so that the histamine concentration became 10 μM, causing the bronchial tube sample to contract. After the contraction became stable, the compounds of the present invention were added cumulatively to the bath to observe relaxation of the bronchial tube sample.
The effect of the compounds of the present invention on relaxation of bronchial tubes was examined according to the method as mentioned hereinbefore.

[6] = tested on: mesenteric artery; assay: Relaxation of mesenteric artery (KCl-contracted); conditions: Oryctolagus cuniculus; rabbit mesenteric artery contracted with 15 to 20 mM KCl; read-out: ED50 (concentration attaining 50% of complete relaxation)
Description: 1. Relaxation of Mesenteric Artery
A rabbit of Japanese local variety weighing about 3 kg was bled to death. Then, the abdomen of the rabbit was dissected to locate a mesenteric artery. […] Thus, shrinking and relaxation of the artery could be measured as a load on the transducer. To the organ bath, KCl was added so that the KCl concentration became 15 to 20 mM, causing the artery to shrink. Then, the compounds of the present invention were added to the organ bath to observe relaxation of the artery.
The effect of the compounds of the present invention on relaxation of mesenteric artery was examined according to the method as mentioned hereinbefore.

[7] = Acute toxicity in rats; conditions: in vivo, male rat
Description: as §4, §5

## O=S(=O)(c1cccc2cnccc12)N1CCCNCC1 [Comparative Compound No. 1, 1(5-Isoquinolinesulfonyl)homopiperazine, reference compound]
[1]; dog, i.v., 0.3 mg/kg
  change in vivo at 0.3 mg/kg: 160%
[2]; dog, i.v., 0.3 mg/kg
  change in vivo at 0.3 mg/kg: 48%
[3]; dog, i.v., 0.3 mg/kg
  change in vivo at 0.3 mg/kg: 89%

## O=S(=O)(c1cccc2c(O)nccc12)N1CCCNCC1 [Comparative Compound No. 2, 1(1-Hydroxy-5-isoquinolinesulfonyl)-homopiperazine, reference compound]
[1]
  change in vivo at 0.3 mg/kg: 48%
[2]
  change in vivo at 0.3 mg/kg: 30%
[3]
  change in vivo at 0.3 mg/kg: 27%

## O=S(=O)(c1cccc2cnccc12)N1CCNCC1 [Comparative Compound No. 3, 1(5-Isoquinolinesulfonyl)piperazine, reference compound]
[1]; dog
  change in vivo at 1 mg/kg: 98%
[2]; dog
  change in vivo at 1 mg/kg: 69%
[3]; dog
  change in vivo at 1 mg/kg: 70%

## CCCCN(CCN)S(=O)(=O)c1cccc2cnccc12 [Compound (3), N-(2-aminoethyl)-N-butyl-5-isoquinolinesulfonamide]
[4]; iv
  LD50: 105 mg/kg
[1]; dog, i.v., 0.3 mg/kg
  change in vivo at 0.3 mg/kg: 130%
[2]; dog, i.v., 0.3 mg/kg
  change in vivo at 0.3 mg/kg: 25%
[5]
  EC50: 5 µM
[6]
  EC50: 2 µM
[3]; dog, i.v., 0.3 mg/kg
  change in vivo at 0.3 mg/kg: 134%

## CCCCCCN(CCN)S(=O)(=O)c1cccc2cnccc12 [Compound (4), N-(2-aminoethyl)-N-hexyl-5-isoquinolinesulfonamide]
[7]; iv
  LD50: 131 mg/kg
[7]; po
  LD50: 968 mg/kg
[4]; iv
  LD50: 95 mg/kg
[4]; po
  LD50: 1100 mg/kg
[1]; dog, i.v., 0.3 mg/kg
  change in vivo at 0.3 mg/kg: 170%
[2]; dog, i.v., 0.3 mg/kg
  change in vivo at 0.3 mg/kg: 38%
[5]
  EC50: 3 µM
[6]
  EC50: 1 µM
[3]; dog, i.v., 0.3 mg/kg
  change in vivo at 0.3 mg/kg: 188%

## CCCCCCNCCN(CC)S(=O)(=O)c1cccc2cnccc12 [Compound (28), N-ethyl-N-(2-hexylaminoethyl)-5-isoquinolinesulfonamide]
[4]; iv
  LD50: 145 mg/kg
[1]; dog, i.v., 0.3 mg/kg
  change in vivo at 0.3 mg/kg: 110%
[2]; dog, i.v., 0.3 mg/kg
  change in vivo at 0.3 mg/kg: 31%
[5]
  EC50: 9 µM
[6]
  EC50: 10 µM
[3]; dog, i.v., 0.3 mg/kg
  change in vivo at 0.3 mg/kg: 114%

## NC1CCCN(S(=O)(=O)c2cccc3cnccc23)C1 (stereo not drawn) [Compound (63), 1-(5-isoquinolinesulfonyl)-3-aminopiperidine]
[7]; iv
  LD50: 194 mg/kg
[7]; po
  LD50: 1220 mg/kg
[4]; iv
  LD50: 176 mg/kg
[4]; po
  LD50: 1120 mg/kg
[1]; dog
  change in vivo at 1 mg/kg: 95%
[1]; dog, i.v., 0.3 mg/kg
  change in vivo at 0.3 mg/kg: 72%
[2]; dog
  change in vivo at 1 mg/kg: 38%
[2]; dog, i.v., 0.3 mg/kg
  change in vivo at 0.3 mg/kg: 20%
[5]
  EC50: 3 µM
[6]
  EC50: 3 µM
[3]; dog
  change in vivo at 1 mg/kg: 128%
[3]; dog, i.v., 0.3 mg/kg
  change in vivo at 0.3 mg/kg: 91%

## CCCCCCNC1CCCN(S(=O)(=O)c2cccc3cnccc23)C1 (stereo not drawn) [Compound (71), 1-(5-isoquinolinesulfonyl)-3-hexylaminopiperidine]
[1]; dog
  change in vivo at 1 mg/kg: 85%
[2]; dog
  change in vivo at 1 mg/kg: 35%
[5]
  EC50: 10 µM
[6]
  EC50: 4 µM
[3]; dog
  change in vivo at 1 mg/kg: 102%

## NC1CCCN(S(=O)(=O)c2cccc3c(O)nccc23)C1 (stereo not drawn) [Compound (84), 1-(1-hydroxy-5-isoquinolinesulfonyl)-3-aminopiperidine]
[4]; iv
  LD50: 141 mg/kg
[1]; dog
  change in vivo at 1 mg/kg: 51%
[2]; dog
  change in vivo at 1 mg/kg: 27%
[5]
  EC50: 8 µM
[6]
  EC50: 13 µM
[3]; dog
  change in vivo at 1 mg/kg: 74%

## CNC1CCN(S(=O)(=O)c2cccc3c(Cl)nccc23)CC1 [Compound (94), 1-(1-chloro-5-isoquinolinesulfonyl)-4-methylaminopiperidine]
[5]
  EC50: 22 µM
[6]
  EC50: 18 µM

## O=S(=O)(c1cccc2c(Cl)nccc12)N1CCC(NCc2ccccc2)CC1 [Compound (95), 1-(1-chloro-5-isoquinolinesulfonyl)-4-benzylaminopiperidine]
[5]
  EC50: 18 µM
[6]
  EC50: 14 µM

## NC1CCCN(S(=O)(=O)c2cccc3c(Cl)nccc23)C1 (stereo not drawn) [Compound (96), 1-(1-chloro-5-isoquinolinesulfonyl)-3-aminopiperidine]
[5]
  EC50: 12 µM
[6]
  EC50: 15 µM

## CCNC1CCCN(S(=O)(=O)c2cccc3c(Cl)nccc23)C1 (stereo not drawn) [Compound (97), 1-(1-chloro-5-isoquinolinesulfonyl)-3-ethylaminopiperidine]
[5]
  EC50: 10 µM
[6]
  EC50: 15 µM

## CCCCCCNC1CCCN(S(=O)(=O)c2cccc3c(Cl)nccc23)C1 (stereo not drawn) [Compound (98), 1-(1-chloro-5-isoquinolinesulfonyl)-3-hexylaminopiperidine]
[5]
  EC50: 13 µM
[6]
  EC50: 13 µM

## CN(C)C1CCCN(S(=O)(=O)c2cccc3c(Cl)nccc23)C1 (stereo not drawn) [Compound (99), 1-(1-chloro-5-isoquinolinesulfonyl)-3-dimethylaminopiperidine]
[5]
  EC50: 19 µM
[6]
  EC50: 21 µM

## NC1CCN(S(=O)(=O)c2cccc3c(Cl)nccc23)C1 (stereo not drawn) [Compound (101), 1-(1-chloro-5-isoquinolinesulfonyl)-3-aminopyrrolidine]
[5]
  EC50: 14 µM
[6]
  EC50: 17 µM

## CNC1CCN(S(=O)(=O)c2cccc3c(Cl)nccc23)C1 (stereo not drawn) [Compound (102), 1-(1-chloro-5-isoquinolinesulfonyl)-3-methylaminopyrrolidine]
[5]
  EC50: 18 µM
[6]
  EC50: 16 µM

Reference: US4798897A, “Isoquinoline derivatives” (Asahi Kasei Kogyo Kabushiki Kaisha, priority 1987, dated 1989)
